Among the data in EP1257544B1, “PIPERAZINE AND PIPERIDINE DERIVATIVES FOR TREATMENT OR PREVENTION OF NEURONAL DAMAGE” (VERTEX PHARMACEUTICALS INCORPORATED, priority 2000, dated 2001) are EC50 values, retold here.

Molecules are shown by their SMILES. Structures can show the parent of a compound that is named as a salt. Some results are limits rather than exact numbers.

In the experiment the test system is Dissociated VM cells. The experiment is described as follows: Neuroprotection Assay (NMDA-induced neuroexcitotoxic injury, high affinity 3H-dopamine uptake). It counts as cell-based, Sprague-Dawley rat. The conditions noted are these: embryonic day 15 rat ventral mesencephalic cultures, NMDA (100-400 µM) for 20 hours. The text has this: The neuroprotective activity of the compounds of this invention may be assayed using rat embryo ventral mesencephalic cells in culture which are subsequently exposed to the glutamate receptor agonist NMDA. This assay is described in detail in the example section.
The ventral mesencephalic region was dissected out of embryonic day 15 Sprague-Dawley rat embryos (Harlan), dissociated into single cell suspension by a combination of trypsinization and trituration (Costantini et al., Neurobiol Dis., pp. 97-106 (1998). Dissociated VM cells were plated into poly-L-ornithine-coated 96-well plates at a density of 85,000 cells/well in 100 uL of DMEM supplemented with 18% heat-inactivated horse serum, 0.24% glucose, 2 mM glutamine and 50 u/ml pernicillin/streptomycin and incubated in a 5% CO2 incubator. After one day in culture (DIV1), the medium was replaced with 100 µL of a defined medium (DMEM supplemented with 1x N2 cocktail (Gibco-BRL), 0.12% glucose, 2 mM glutamine, and 50 units/ml penicillin/streptomycin) containing DMSO or various concentrations of the compounds of this invention. On DIV5, neuroexcitotoxic injury was induced by the addition of various concentrations of the glutamate receptor agonist NMDA (100-400 µM). Cultures were incubated with the neurotoxin for 20 hours and the effects of neurophilin compounds were assessed using high affinity ^3H-dopamine uptake according to a procedure published by Park and Mytilineou [Brain Res., 599, pp. 83-97 (1992)].
As for `CN1CCC=C(C(=O)N2CCC(Cc3ccc(F)cc3)CC2)C1` [Compound 89, [4-(4-Fluorobenzyl)piperidin-1-yl]-(1-methyl-1,2,5,6-tetrahydropyridin-3-yl) methanone hydrochloride], the EC50 fell in the range of 0.1 to 0.5 µM.
For `O=C([C@@H]1CCCN1Cc1ccccc1)N1CCC(Cc2ccc(F)cc2)CC1` [Compound 49, ((2S)-1-Benzylpyrrolidin-2-yl)-[4-(4-fluorobenzyl)-piperidin-1-yl]-methanone hydrochloride], the EC50 is < 0.1 µM.
Regarding `CCN1CCCC[C@H]1C(=O)N1CCN(S(=O)(=O)c2ccc(F)cc2)CC1` [Compound 81, ((2S)-1-Ethylpiperidin-2-yl)-[4-(4-fluorobenzenesulfonyl)-piperazin-1-yl]-methanone hydrochloride], the EC50 was > 0.5 µM.
Take `O=C([C@@H]1CCCCN1CC1CC1)N1CCN(C(c2ccc(F)cc2)c2ccc(F)cc2)CC1` [Compound 63, {4-[Bis-(4-fluorophenyl)methyl]-piperazin-1-yl}-((2S)-1-cyclopropylmethyl-piperidin-2-yl)-methanone]: the EC50 was > 0.5 µM.
Under `O=C([C@@H]1CCCN1CCc1ccccc1)N1CCC(Cc2ccccc2)CC1` [Compound 57, (4-Benzylpiperidin-1-yl)-((2S)-1-phenethylpyrrolidin-2-yl)-methanone] stands 0.1 to 0.5 µM; under `CCN1CCCC[C@@H]1C(=O)N1CCN(C(c2ccccc2)c2ccccc2)CC1` [Compound 15, 1-[4-(1,1-Diphenylmethyl)piperazin-1-yl]-1-((R)-1-ethylpiperidin-2-yl)methanone], < 0.1 µM.
The result for `CCN1CCCC[C@H]1C(=O)N1CCN(C(c2ccccc2)c2nc(OC)cc(OC)n2)CC1` (some centres unmarked) [Compound 43] reads 0.1 to 0.5 µM; that for `CCN1CCCC[C@H]1C(=O)N1CCN(C(=O)c2ccccc2)CC1` [Compound 78, [4-((2S)-1-Ethylpiperidine-2-carbonyl)-piperazin-1-yl]-phenyl methanone], > 0.5 µM; that for `CCN1CCCC[C@H]1C(=O)N1CCN(Cc2ccccc2)CC1` [Compound 16, 1-(4-Benzylpiperazin-1-yl)-1-((S)-1-ethylpiperidin-2-yl)methanone], 0.1 to 0.5 µM.
Under `CN1CCCC(C(=O)N2CCC(Cc3ccccc3)CC2)C1` (centres unmarked) [Compound 204] stands 0.1 to 0.5 µM; under `CCN1CCCC[C@H]1C(=O)N1CCN(C(=O)c2ccc(F)cc2)CC1` [Compound 79, ((2S)-1-Ethylpiperidin-2-yl)-[4-(4-fluorobenzoyl)-piperazin-1-yl] methanone hydrochloride], 0.1 to 0.5 µM; under `CCN1CCCC[C@H]1C(=O)N1CCN(Cc2ccc(F)c(F)c2)CC1` [Compound 77, [4-(3,4-Difluorobenzyl)-piperazin-1-yl]-((2S) -1-ethylpiperidin-2-yl)-methanone], 0.1 to 0.5 µM.
For `O=C([C@@H]1CCCCN1Cc1ccc(F)cc1)N1CCN(C(c2ccc(F)cc2)c2ccc(F)cc2)CC1` [Compound 62, {4-[Bis-(4-fluorophenyl)methyl]-pipezazin-1-yl}-[(2S)-1-(4-fluorobenzyl)-piperidin-2-yl]-methanone], the EC50 was in the range of 0.1 to 0.5 µM.
As for `O=C(C1CCN(C/C=C/c2ccccc2)CC1)N1CCC(Cc2ccc(F)cc2)CC1` [Compound 255], the EC50 was < 0.1 µM.
Under `O=C([C@@H]1C[C@@H](O)CN1Cc1ccccc1)N1CCC(Cc2ccccc2)CC1` [Compound 30, ((2S,4R) -1-Benzyl-4-hydroxypyrrolidin-2-yl)-(4-benzylpiperidin-1-yl)-methanone] stands < 0.1 µM.
Turning to `O=C(C1CC2CCN1CC2)N1CCC(Cc2ccc(F)cc2)CC1` (centres unmarked) [Compound 88, (1-Aza-bicyclo[2.2.2]oct-2-yl)-[4-(4-fluoro-benzyl)-piperidin-1-yl] methanone hydrochloride], the concentration for a half-maximal effect (EC50) lay in the range of 0.1 to 0.5 µM.
As to `CCN1CCCC[C@H]1C(=O)N1CCN(C(c2ccccc2)c2ccccc2)CC1` [Compound 1, 1-[4-(1,1-Diphenylmethyl)piperazin-1-yl]-1-((S)-1-ethylpiperidin-2-yl)methanone], the EC50 was < 0.1 µM.
The result for `O=C([C@@H]1CCCN1Cc1ccccc1)N1CCC(=Cc2ccc(F)cc2)CC1` [Compound 85, ((2S)-1-Benzylpyrrolidin-2-yl)-[4-(4-fluorobenzylidene)piperidin-1-yl] methanone hydrochloride] reads < 0.1 µM.
Under `CCN1CCCC[C@H]1C(=O)N1CCN(Cc2ccc(F)cc2)CC1` [Compound 76, ((2S)-1-Ethylpiperidin-2-yl)-[4-(4-fluorobenzyl)-piperazin-1-yl] methanone] stands 0.1 to 0.5 µM; under `CCN1CCCC[C@H]1C(=O)N1CCN(Cc2ccc3c(c2)OCO3)CC1` [Compound 71, (4-Benzo[1,3]dioxol-5-ylmethylpiperazin-1-yl)-((2S)-1-ethylpiperidin-2-yl)-methanone dihydrochloride], > 0.5 µM.
Under `Fc1ccc(CC2CCN(C[C@@H]3CCCN3Cc3ccccc3)CC2)cc1` [Compound 103, 1-((2S)-1-Benzylpyrrolidin-2-ylmethyl)-4-(4-fluorobenzyl)piperidine dihydrochloride] stands < 0.1 µM.
For `CCN1CCCC[C@@H]1C(=O)N1CCN(C(c2ccc(F)cc2)c2ccc(F)cc2)CC1` [Compound 40, {4-[Bis-(4-fluorophenyl)methyl]-piperazin-1-yl}-((2R)-1-ethylpiperidin-2-yl)-methanone], the EC50 was > 0.5 µM.
As for `CCN1CCCC[C@H]1C(=O)N1CCC(Cc2ccc(F)cc2)CC1` [Compound 47, ((2S)-1-Ethylpiperidin-2-yl)-[4-(4-fluorobenzyl)-piperidin-1-yl]-methanone hydrochloride], the EC50 is < 0.1 µM.
The result for `CC(C)=CCN1CCCC[C@H]1C(=O)N1CCN(C(c2ccc(F)cc2)c2ccc(F)cc2)CC1` [Compound 65, {4-[Bis-(4-fluorophenyl)methyl]-piperazin-1-yl}-[(2S)-1-(3-methyl-but-2-enyl)-piperidin-2-yl]-methanone] reads < 0.1 µM.
On to `O=C(C1CCN(C/C=C/c2ccccc2)CC1)N1CCN(c2ccc(F)cc2)CC1` [Compound 266], for which the EC50 was in the range of 0.1 to 0.5 µM.
Under `CCN1CCCC[C@H]1C(=O)N1CCN(S(=O)(=O)c2ccccc2)CC1` [Compound 80, (4-Benzenesulfonylpiperazin-1-yl)-((2S)-1-ethylpiperidin-2-yl)-methanone hydrochloride] stands > 0.5 µM.
The result for `C=CCN1CCC(C(=O)N2CCN(c3ccc(F)cc3)CC2)CC1` [Compound 258] reads 0.1 to 0.5 µM; that for `O=C([C@@H]1CCCN1Cc1ccccc1)N1CCN(c2ccc(F)cc2)CC1` [Compound 86, ((2S)-1-Benzylpyrrolidin-2-yl)-[4-(4-fluorophenyl)piperazin-1-yl] methanone hydrochloride], < 0.1 µM; that for `CCN1CCCC[C@H]1C(=O)N1CCC(C(=O)c2ccc(F)cc2)CC1` [Compound 45, ((2S)-1-Ethylpiperidin-2-yl)-[4-(4-fluorobenzoyl)-piperidin-1-yl]-methanone], 0.1 to 0.5 µM.
Under `O=C([C@@H]1CCCN1Cc1ccccc1)N1CCC(Oc2ccc(F)cc2)CC1` [Compound 48, ((2S)-1-Benzylpyrrolidin-2-yl)-[4-(4-fluorophenoxy)-piperidin-1-yl] -methanone hydrochloride] stands < 0.1 µM; under `O=C([C@@H]1CCCN1CCCc1ccccc1)N1CCC(Cc2ccccc2)CC1` [Compound 59, (4-Benzylpiperidin-1-yl)-[(2S)-1-(3-phenylpropyl) - pyrrolidin-2-yl]-methanone hydrochloride], 0.1 to 0.5 µM; under `O=C([C@@H]1CCCCN1Cc1ccc(F)cc1)N1CCN(C(c2ccccc2)c2ccccc2)CC1` [Compound 21, 1-[4-(1,1-Diphenyl-methyl)-piperazin-1-yl]-1-[(S)-1-(4-fluoro-benzyl)-piperidin-2-yl]-methanone], < 0.1 µM.
Consider `O=C(C1CCN(CC2CC2)CC1)N1CCN(c2ccc(F)cc2)CC1` [Compound 262], for which the EC50 is < 0.1 µM.
The result for `CC(C)CN1CCCC[C@H]1C(=O)N1CCN(C(c2ccc(F)cc2)c2ccc(F)cc2)CC1` [Compound 66, [4-[Bis-(4-fluorophenyl)methyl]-piperazin-1-yl]-((2S)-1-(2-methylpropyl)-piperidin-2-yl)-methanone] reads > 0.5 µM; that for `CCN1CCCC[C@H]1C(=O)N1CCN(Cc2ccncc2)CC1` [Compound 37, ((2S)-1-Ethylpiperidin-2-yl)-(4-pyridin-4-ylmethylpiperazin-1-yl)-methanone trihydrochloride], > 0.5 µM; that for `CCN1CCCC[C@H]1C(=O)N1CCC(=Cc2ccc(F)cc2)CC1` [Compound 84, ((2S)-1-Ethylpiperidin-2-yl)-[4-(4-fluorobenzylidene)piperidin-1-yl]-methanone hydrochloride], < 0.1 µM.
For the molecule `O=C([C@@H]1CCCCN1Cc1ccccc1)N1CCN(C(c2ccc(F)cc2)c2ccc(F)cc2)CC1` [Compound 61, ((2S)-1-Benzylpiperidin-2-yl)-{4-[bis-(4-fluorophenyl)methyl]-piperazin-1-yl}-methanone], the concentration giving a half-maximal response (EC50) was 0.1 to 0.5 µM.
The result for `O=C([C@@H]1CCCN1Cc1ccccc1)N1CCC(Cc2ccccc2)CC1` [Compound 52, (4-Benzylpiperidin-1-yl)-((2S)-1-benzylpyrrolidin-2-yl)-methanone hydrochloride] reads < 0.1 µM.

As usually defined, the EC50 is the concentration that produces a half-maximal response.
